Assay results: patent US8399515B2, “Five and fifteen carbon fatty acids for treating metabolic disorders and as nutritional supplements” (Baylor Research Institute, priority 2003, dated 2013)
Several values for one entry are separate records, joined by “and”; a condition that tells them apart may be missing. Equal values may be shown once.

Columns and labels:
[1] = system: VLCAD patient; assay: Meal test with triheptanoin or tripentanoin in a VLCAD patient; type: in vivo, human; parameters: Myristenoylcarnitine Level: unit not given here; conditions: for Myristenoylcarnitine Level / Propionylcarnitine Level: blood
Excerpt: (§1) A VLCAD patient and an SCAD patient, both of whom had gastrostomy sites for enteral administration, each were provided with separate meals containing equimolar amounts of triheptanoin (C7) and tripentanoin (C5) at different times on the same day. Each patient was given the amount in 1 of 4 daily meals equivalent to a diet of 3 gms/Kg/day or about 30% of total Kcal as the triglyceride. Serial blood samples were obtained hourly and individual urines were collected at baseline and during the meal.
(§2) The patient with VLCAD (FIG. 3) was monitored over a 3 hour interval and the SCAD patient was monitored for 4 hours after beginning the meal. […] One way the VLCAD patient was monitored was for myristenoylcamitine (cis-5-C14:1), which reflects oxidation of oleate and is therefore an indication of ongoing lipolysis during the meal tests (it is not derived from either C7 or C5). […] These changes are not observed with even-carbon triglycerides.

[2] = system: fibroblasts from patients with Mitochondrial Trifunctional Protein (MTP) deficiency; assay: Propionylcarnitine from oxidation of odd-carbon fatty acids in MTP fibroblasts; type: cell-based, human; conditions: for Propionylcarnitine from oxidation of fatty acid: 72 hours incubation
Method: (§3) Fibroblasts obtained from patients with inherited defects of mitochondrial fat oxidation were cultured in the presence of omega deuterated odd-carbon numbered fatty acids, as described in Roe, C. R., Sweetman, L., Roe, D. S., David, F., Brunengraber, H., “Effective Dietary Treatment of Cardiomyopathy & Rhabdomyolysis in Long-Chain Fat Oxidation Disorders using an Anaplerotic Odd-Chain Triglyceride,” J. Clin. Invest. 110 (2): 259-269 (2002).
(§4) The data in Table 1 represents testing of cultured fibroblasts derived from ten patients afflicted with Very-long-chain acyl-CoA dehydrogenase (VLCAD) deficiency (six patients with the severe cardiac form and four with the non-cardiac milder phenotype), two patients with Mitochondrial Trifunctional Protein (MTP) deficiency, five patients having L-3-hydroxy-acyl-CoA dehydrogenase (LCHAD) deficiency and three patients with Short-chain acyl-CoA dehydrogenase (SCAD) deficiency.

[3] = system: control / normal fibroblasts; assay: Fate of odd-carbon fatty acids in control (normal) fibroblasts; type: cell-based, human; parameters: *C3 acylcarnitine / *C5 acylcarnitine / *C7 acylcarnitine / *C9 acylcarnitine / *C11 acylcarnitine / *C13 acylcarnitine / *C15 acylcarnitine: unit not given here; conditions: for Propionylcarnitine from odd carbon precursor: NORMAL fibroblasts
Method: Fibroblasts obtained from patients with inherited defects of mitochondrial fat oxidation were cultured in the presence of omega deuterated odd-carbon numbered fatty acids, as described in Roe, C. R., Sweetman, L., Roe, D. S., David, F., Brunengraber, H., “Effective Dietary Treatment of Cardiomyopathy & Rhabdomyolysis in Long-Chain Fat Oxidation Disorders using an Anaplerotic Odd-Chain Triglyceride,” J. Clin. Invest. 110 (2): 259-269 (2002). […]

[4] = system: MCAD-deficient fibroblasts; assay: Fate of odd-carbon fatty acids in MCAD-deficient fibroblasts; type: cell-based, human; parameters: *C3 acylcarnitine / *C5 acylcarnitine / *C7 acylcarnitine / *C9 acylcarnitine / *C11 acylcarnitine / *C13 acylcarnitine / *C15 acylcarnitine: unit not given here; conditions: for *C3 acylcarnitine / *C5 acylcarnitine / *C7 acylcarnitine / *C9 acylcarnitine / *C11 acylcarnitine / *C13 acylcarnitine / *C15 acylcarnitine: MCAD fibroblasts, N 4
Method: as §3
Fibroblasts from four patients with MCAD deficiency and one heterozygote (carrier) indicate that odd-carbon fatty acids containing more than seven carbons can not be effectively used in that disease. […]

[5] = system: fibroblasts from patients with VLCAD deficiency, non-cardiac milder phenotype; assay: Propionylcarnitine from oxidation of odd-carbon fatty acids in VLCAD (non-cardiac) fibroblasts; type: cell-based, human; conditions: for Propionylcarnitine from oxidation of fatty acid: 72 hours incubation
Method: as §3, §4

[6] = system: fibroblasts from patients with L-3-hydroxy-acyl-CoA dehydrogenase (LCHAD) deficiency; assay: Propionylcarnitine from oxidation of odd-carbon fatty acids in LCHAD fibroblasts; type: cell-based, human; conditions: for Propionylcarnitine from oxidation of fatty acid: 72 hours incubation
Method: as §3, §4

[7] = system: fibroblasts from patients with inherited defects of mitochondrial fat oxidation; assay: Propionylcarnitine production in all fat-oxidation-defective fibroblast cell lines (comparison in words); type: cell-based, human; conditions: all VLCAD, MTP, LCHAD, SCAD cell lines; C5 versus C7; C15 versus C5 or C7
Method: as §3, §4

[8] = system: fibroblasts from patients with Very-long-chain acyl-CoA dehydrogenase (VLCAD) deficiency, severe cardiac form; assay: Propionylcarnitine from oxidation of odd-carbon fatty acids in VLCAD (cardiac) fibroblasts; type: cell-based, human; conditions: for Propionylcarnitine from oxidation of fatty acid: 72 hours incubation
Method: as §3, §4

[9] = system: fibroblasts from patients with Short-chain acyl-CoA dehydrogenase (SCAD) deficiency; assay: Propionylcarnitine from oxidation of odd-carbon fatty acids in SCAD fibroblasts; type: cell-based, human; conditions: for Propionylcarnitine from oxidation of fatty acid: 72 hours incubation
Method: as §3, §4

[10] = system: SCAD patient; assay: Meal test with triheptanoin or tripentanoin in a SCAD patient; type: in vivo, human
Excerpt: as §1, §2
The second patient with SCAD deficiency (FIG. 4) had been receiving the triheptanoin diet for more than 2 years. This disorder is due to an inherited deficiency of butyryl-CoA dehydrogenase (SCAD) and is known to oxidize even carbon fatty acids of 4-6 carbon chain length.
In FIG. 4, C7-C3 represents the blood levels of C3 derived from C7; and C5-C3 represents the blood levels of C3 derived from C5, C7-C5 represents blood levels of pentanoylcarnitine (C5) derived from C7 meals and C5-C5 represents blood levels of pentanoylcarnitine (C5) derived from C5 meals. […] C7-C4 and C5-C4 represent the levels of the disease-specific acylcarnitine (butyrylcarnitine [C4]) observed in SCAD deficiency. […] This increased quantity of C3 corresponds to those observed for SCAD deficiency in the fibroblast studies above shown in Table 1.

[11] = system: fibroblasts from MCAD heterozygote (carrier); assay: Fate of odd-carbon fatty acids in MCAD carrier fibroblasts; type: cell-based, human; parameters: unit not given here
Method: as §3
Fibroblasts from four patients with MCAD deficiency and one heterozygote (carrier) indicate that odd-carbon fatty acids containing more than seven carbons can not be effectively used in that disease. […] That any C3 was produced is presumably due to overlapping

[12] = MTP fibroblasts, one line per patient
[13] = VLCAD non-cardiac fibroblasts, one line per patient
[14] = average over VLCAD non-cardiac cell lines
[15] = LCHAD fibroblasts, one line per patient
[16] = VLCAD cardiac fibroblasts, one line per patient
[17] = average over VLCAD cardiac cell lines
[18] = SCAD fibroblasts, one line per patient

## CCCCC(=O)O [C5, n-pentanoic acid]
[1]; time 0 hours, cis-5-C14:1, marker of lipolysis
  Myristenoylcarnitine Level: 3.07
[1]; time 0 hours, enteral meal via gastrostomy
  Propionylcarnitine Level: 1.38
[1]; time 1 hours
  Myristenoylcarnitine Level: 2.89
  Propionylcarnitine Level: 3.15
[1]; time 2 hours
  Myristenoylcarnitine Level: 2.04
  Propionylcarnitine Level: 3.51
[1]; time 3 hours
  Myristenoylcarnitine Level: 3.39
  Propionylcarnitine Level: 5.63
[1]; meal test, 3 hour interval
  Clinical or biochemical toxicity: no clinical or biochemical toxicity
[2]; [12]
  Ratio: C5/C7 (propionylcarnitine): 1.6 and 1.3
  Ratio: C5/C15 (propionylcarnitine): 1.2 and 1.4
  Propionylcarnitine from oxidation of fatty acid: 38.3 nmol/mg Protein/72 hours and 63.6 nmol/mg Protein/72 hours
[2]; average over MTP cell lines
  AVG. Ratio: C5/C7: AVG. 1.5
  AVG. Ratio: C5/C15: AVG. 1.3
[3]
  Propionylcarnitine from odd carbon precursor: 25.8 nmol/mg Protein/72 hours
[4]; MCAD 1 and MCAD 2 cell lines, compared with normal
  Propionyl-CoA produced in culture (in words): normal or greater than normal
[4]; MCAD-1 fibroblast cell line
  Propionylcarnitine from odd carbon precursor: 25.8 nmol/mg Protein/72 hours
[4]; MCAD-2 fibroblast cell line
  Propionylcarnitine from odd carbon precursor: 58.5 nmol/mg Protein/72 hours
[5]; [13]
  Ratio: C5/C7 (propionylcarnitine): 2.0 and 1.4 (2×) and 2.1
  Ratio: C5/C15 (propionylcarnitine): 2.7 and 1.5 and 1.4 and 1.7
  Propionylcarnitine from oxidation of fatty acid: 44.4 nmol/mg Protein/72 hours and 28.3 nmol/mg Protein/72 hours and 51.8 nmol/mg Protein/72 hours and 19.7 nmol/mg Protein/72 hours
[5]; [14]
  AVG. Ratio: C5/C7: AVG. 1.7
  AVG. Ratio: C5/C15: AVG. 1.8
[6]; [15]
  Ratio: C5/C7 (propionylcarnitine): 1.2 and 1.5 (2×) and 2.3 and 1.6
  Ratio: C5/C15 (propionylcarnitine): 1.9 and 2.3 and 2.2 and 3.5 and 2.6
  Propionylcarnitine from oxidation of fatty acid: 65.4 nmol/mg Protein/72 hours and 34.5 nmol/mg Protein/72 hours and 35.0 nmol/mg Protein/72 hours and 24.4 nmol/mg Protein/72 hours and 36.8 nmol/mg Protein/72 hours
[6]; average over LCHAD cell lines
  AVG. Ratio: C5/C7: AVG. 1.6
  AVG. Ratio: C5/C15: AVG. 2.5
[7]
  Quantity of propionylcarnitine produced, compared with the other odd-carbon fatty acids: consistently greater quantities of propionylcarnitine
[8]; [16]
  Ratio: C5/C7 (propionylcarnitine): 1.6 (2×) and 2.1 and 1.5 and 1.7 and 2.0
  Ratio: C5/C15 (propionylcarnitine): 4.0 and 5.2 and 3.1 and 3.5 and 5.3 and 5.1
  Propionylcarnitine from oxidation of fatty acid: 47.0 nmol/mg Protein/72 hours and 27.2 nmol/mg Protein/72 hours and 67.8 nmol/mg Protein/72 hours and 28.2 nmol/mg Protein/72 hours and 34.7 nmol/mg Protein/72 hours and 50.6 nmol/mg Protein/72 hours
[8]; [17]
  AVG. Ratio: C5/C7: AVG. 1.8
  AVG. Ratio: C5/C15: AVG. 4.4
[9]; [18]
  Ratio: C5/C7 (propionylcarnitine): 1.4 (2×) and 1.2
  Ratio: C5/C15 (propionylcarnitine): 1.4 (2×) and 1.3
  Propionylcarnitine from oxidation of fatty acid: 80.2 nmol/mg Protein/72 hours and 43.6 nmol/mg Protein/72 hours and 48.2 nmol/mg Protein/72 hours
[9]; average over SCAD cell lines
  AVG. Ratio: C5/C7: AVG. 1.3
  AVG. Ratio: C5/C15: AVG. 1.4
[10]
  Amount of C3 produced following the meal, C5 compared with C7: significantly greater
  Limitation in oxidation of the meal triglyceride: no limitation in oxidation
[10]; C4 already at very low levels
  Change in C4 (butyrylcarnitine) during the meal: no significant decrease in C4
[10]; meal test, 4 hours
  Clinical or biochemical toxicity: no clinical or biochemical toxicity
[10]; time 0 hours
  Relative Blood Levels of Fatty Acid Chain Lengths: C3: 2.61
  Relative Blood Levels of Fatty Acid Chain Lengths: C4 (butyrylcarnitine): 0.30
[10]; time 1 hours
  Relative Blood Levels of Fatty Acid Chain Lengths: C3: 2.78
  Relative Blood Levels of Fatty Acid Chain Lengths: C4 (butyrylcarnitine): 0.26
[10]; time 2 hours
  Relative Blood Levels of Fatty Acid Chain Lengths: C3: 3.19
  Relative Blood Levels of Fatty Acid Chain Lengths: C4 (butyrylcarnitine): 0.27
[10]; time 3 hours
  Relative Blood Levels of Fatty Acid Chain Lengths: C3: 3.73
  Relative Blood Levels of Fatty Acid Chain Lengths: C4 (butyrylcarnitine): 0.30
[10]; time 4 hours
  Relative Blood Levels of Fatty Acid Chain Lengths: C3: 4.99
  Relative Blood Levels of Fatty Acid Chain Lengths: C4 (butyrylcarnitine): 0.27

## CCCCCCCCCCCCCCC(=O)O [C15, n-pentadecanoic acid]
[2]; [12]
  Propionylcarnitine from oxidation of fatty acid: 31.4 nmol/mg Protein/72 hours and 46.5 nmol/mg Protein/72 hours
[11]
  *C3 acylcarnitine: 33.5
  *C5 acylcarnitine: 1.7
  *C7 acylcarnitine: 0.6
  *C9 acylcarnitine: 1.7
  *C11 acylcarnitine: 0.5
  *C13 acylcarnitine: 0.2
  *C15 acylcarnitine: 1.9
[3]; CONTROL MEAN, N = 4
  *C3 acylcarnitine: 46.8
  *C5 acylcarnitine: 2.8
  *C7 acylcarnitine: 0.8
  *C9 acylcarnitine: 2.2
  *C11 acylcarnitine: 0.9
  *C13 acylcarnitine: 0.7
  *C15 acylcarnitine: 3.8
[3]
  Propionylcarnitine from odd carbon precursor: 46.8 nmol/mg Protein/72 hours
[3]; normal cells, compared with C7 or C5
  Boosting the production of propionyl-CoA (in words): more effective in normal cells
[4]; Maximum
  *C3 acylcarnitine: 19.6
  *C5 acylcarnitine: 1.6
  *C7 acylcarnitine: 9.9
  *C9 acylcarnitine: 17.5
  *C11 acylcarnitine: 1.0
  *C13 acylcarnitine: 0.9
  *C15 acylcarnitine: 4.7
[4]; Mean
  *C3 acylcarnitine: 9.8
  *C5 acylcarnitine: 1.2
  *C7 acylcarnitine: 6.5
  *C9 acylcarnitine: 10.9
  *C11 acylcarnitine: 0.7
  *C13 acylcarnitine: 0.4
  *C15 acylcarnitine: 2.6
[4]; Minimum
  *C3 acylcarnitine: 3.1
  *C5 acylcarnitine: 0.5
  *C7 acylcarnitine: 3.5
  *C9 acylcarnitine: 4.3
  *C11 acylcarnitine: 0.3
  *C13 acylcarnitine: 0.0
  *C15 acylcarnitine: 1.0
[4]; MCAD-1 fibroblast cell line
  Propionylcarnitine from odd carbon precursor: 6.9 nmol/mg Protein/72 hours
[4]; MCAD-2 fibroblast cell line
  Propionylcarnitine from odd carbon precursor: 19.6 nmol/mg Protein/72 hours
[4]; four MCAD patients' fibroblasts
  Oxidation of the fatty acid in MCAD deficient fibroblasts (in words): a block in oxidation at C9 & C7
[5]; [13]
  Propionylcarnitine from oxidation of fatty acid: 16.4 nmol/mg Protein/72 hours and 19.2 nmol/mg Protein/72 hours and 36.0 nmol/mg Protein/72 hours and 11.5 nmol/mg Protein/72 hours
[6]; [15]
  Propionylcarnitine from oxidation of fatty acid: 34.6 nmol/mg Protein/72 hours and 15.1 nmol/mg Protein/72 hours and 15.9 nmol/mg Protein/72 hours and 6.9 nmol/mg Protein/72 hours and 13.9 nmol/mg Protein/72 hours
[7]
  Quantity of propionylcarnitine produced, compared with the other odd-carbon fatty acids: less propionylcamitine
[8]; [16]
  Propionylcarnitine from oxidation of fatty acid: 11.7 nmol/mg Protein/72 hours and 5.3 nmol/mg Protein/72 hours and 21.6 nmol/mg Protein/72 hours and 8.0 nmol/mg Protein/72 hours and 6.6 nmol/mg Protein/72 hours and 9.9 nmol/mg Protein/72 hours
[9]; [18]
  Propionylcarnitine from oxidation of fatty acid: 56.7 nmol/mg Protein/72 hours and 30.3 nmol/mg Protein/72 hours and 37.6 nmol/mg Protein/72 hours
